# Read-outs that look alike come from different tables or passages of the source.
# Test system: NF-κ B
# Experiment: Inhibitory activity of NF-κ B activation, luciferase reporter assay in HepG2 under TNF-α stimulation
# Assay type: cell-based, human
# Procedure, shortened: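 HepG2 cells transiently transfected with a luciferase reporter driven by five tandem NF-κB binding sites, then incubated 6–24 h. Stimulated with TNF-α (40 ng/ml) with or without test compound for 4 h. Intracellular luciferase read by chemiluminescence; inhibition expressed relative to activity without compound.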
# [1] = 1 μg/mL, HepG2, TNF-α (40 ng/ml), 4 hours
# [2] = 10 μg/mL, HepG2, TNF-α (40 ng/ml), 4 hours
# [3] = Homo sapiens, 1 μg/mL, HepG2, TNF-α (40 ng/ml), 4 hours, read-out: Inhibitory Ratio of NF-κ B Activation(%) Drug Concentration 1 μg/mL
# [4] = Homo sapiens, 10 μg/mL, HepG2, TNF-α (40 ng/ml), 4 hours, read-out: Inhibitory Ratio of NF-κ B Activation(%) Drug Concentration 10 μg/mL
Inhibitory Ratio of NF-κ B Activation(%) Drug Concentration 10 μg/mL [2] [%],SMILES,Inhibitory Ratio of NF-κ B Activation(%) Drug Concentration 1 μg/mL [1] [%],further results
,"O=C(Nc1cc(C(F)(F)F)cc(C(F)(F)F)c1)c1cc([N+](=O)[O-])ccc1O [Compound No. 8, N-[3,5-bis(trifluoromethyl)phenyl]-2-hydroxy-5-nitrobenzamide]",,inhibition at 1 µg/mL [3]: 92%; inhibition at 10 µg/mL [4]: 99.2%
95.7,O=C(Nc1cc([N+](=O)[O-])ccc1Cl)c1cc(Cl)ccc1O [Compound No. 156],93.8,
94.7,CC(=O)Oc1ccc(Cl)cc1C(=O)Nc1cc(C(C)(C)C)cc(C(C)(C)C)c1 [Compound No. 139],90.8,
97.9,CC(C)CCOc1ccc(OCCC(C)C)c(NC(=O)c2cc(Cl)ccc2O)c1 [Compound No. 162],93.8,
96.4,Cc1ccc(C(=O)C(C)(C)C)cc1NC(=O)c1cc(Cl)ccc1O [compound 166],94.1,
,CC(C)c1cc(Br)cc(C(=O)Nc2cc(C(F)(F)F)cc(C(F)(F)F)c2)c1O [Compound No. 257],>99.9,
,"Cc1nc(NC(=O)c2cc(Br)ccc2O)sc1-c1cccc(C(F)(F)F)c1 [Compound No. 194, 5-Bromo-N-{4-methyl-5-[3-(trifluoromethyl)phenyl]thiazol-2-yl}-2-hydroxybenzamide]",,inhibition at 10 µg/mL [4]: 71.7%
,"CCCCc1nc(NC(=O)c2cc(Br)ccc2O)sc1-c1ccccc1 [Compound No. 198, 5-Bromo-N-(4-butyl-5-phenylthiazol-2-yl)-2-hydroxybenzamide]",,inhibition at 1 µg/mL [3]: 46.1%; inhibition at 10 µg/mL [4]: 88.7%
95.5,CC(=O)Oc1ccccc1C(=O)Nc1cc(Cl)cc(Cl)c1 [Compound No. 121],92.9,
99.5,CCCCc1ccc([N+](=O)[O-])cc1NC(=O)c1cc(Cl)ccc1O [Compound No. 176],96.0,
,"O=C(Nc1ccc(F)cc1F)c1cc([N+](=O)[O-])ccc1O [drawing 559, reference compound]",,"inhibition at 0.1 µg/mL (Homo sapiens, HepG2, 4 h, 0.1 μg/ml, comparison table, reporter assay, read-out: Inhibitory Ratio of NF-κB Activation (%) 0.1 μg/ml): -82.9%; inhibition at 1 µg/mL (Homo sapiens, HepG2, 4 h, 1 μg/ml, comparison table, reporter assay, read-out: Inhibitory Ratio of NF-κB Activation (%) 1 μg/ml): -63.8%; inhibition at 10 µg/mL (Homo sapiens, HepG2, 4 h, 10 μg/ml, comparison table, reporter assay, read-out: Inhibitory Ratio of NF-κB Activation (%) 10 μg/ml): 86.5%"
96.0,"CC(=O)Nc1cc(O)c(C(=O)Nc2cc(C(F)(F)F)cc(C(F)(F)F)c2)cc1Cl [Compound No. 50, 4-Acetylamino-N-[3,5-bis(trifluoromethyl)phenyl]-5-chloro-2-hydoxybenzamide]",69.9,
,"CC(=O)Oc1ccccc1C(=O)Nc1cc(C(F)(F)F)cc(C(F)(F)F)c1 [compound 1, 2-acetoxy-N-[3,5-bis(trifluoromethyl)phenyl]benzamide]",,inhibition at 1 µg/mL [3]: 90.9%; inhibition at 10 µg/mL [4]: 97.1%
,"CCOC(=O)c1sc(NC(=O)c2cc(Br)ccc2O)nc1C(C)(C)C [Compound No. 202, 2-(5-Bromo-2-hydroxybenzoyl)amino-4-[(1,1-dimethyl)ethyl]thiazole-5-carboxylic acid ethyl ester]",,inhibition at 1 µg/mL [3]: 84.5%; inhibition at 10 µg/mL [4]: 92.4%
99.4,Cc1ccc(O)c(C(=O)Nc2cc(C(F)(F)F)cc(C(F)(F)F)c2)c1 [compound 10],95.8,
,"CCOC(=O)c1sc(NC(=O)c2cc(Br)ccc2O)nc1-c1ccccc1 [Compound No. 216, 2-(5-bromo-2-hydroxybenzoyl)amino-4-phenylthiazole-5-carboxylic acid ethyl ester]",,inhibition at 1 µg/mL [3]: 55.8%; inhibition at 10 µg/mL [4]: 82.8%
78.8,O=C(Nc1nc(-c2ccccc2)cs1)c1cc(Br)ccc1O [Compound No. 208],,
99.2,CC(=NOCc1ccccc1)c1ccc(O)c(C(=O)Nc2cc(C(F)(F)F)cc(C(F)(F)F)c2)c1 [Compound No. 15],94.5,
71.8,O=C(Nc1cc(Cl)cc(Cl)c1)c1ccc(Cl)cc1O [Compound No. 129],,
84.7,O=C(Nc1cc(-c2ccccc2)[nH]n1)c1cc(Br)ccc1O [Compound No. 233],26.6,
,"CCc1nc(NC(=O)c2cc(Br)ccc2O)oc1CC [Compound No. 234, 5-Bromo-N-(4,5-diethyloxazol-2-yl)-2-hydroxybenzamide]",,inhibition at 1 µg/mL [3]: 29.1%; inhibition at 10 µg/mL [4]: 63.1%
89.4,O=C(Nc1nc(C(F)(F)F)c(-c2ccccc2)s1)c1cc(Br)ccc1O [Compound No. 213],85.1,
,"CC(C)c1nc(NC(=O)c2cc(Br)ccc2O)sc1-c1ccccc1 [Compound No. 197, 5-Bromo-N-(4-isopropyl-5-phenylthiazol-2-yl)-2-hydroxybenzamide]",,inhibition at 1 µg/mL [3]: 70.1%; inhibition at 10 µg/mL [4]: 96.1%
98.1,COc1ccc(Oc2ccccc2)cc1NC(=O)c1cc(Cl)ccc1O [Compound No. 171],90.6,
95.3,CCOc1ccc(OCC)c(NC(=O)c2cc(Cl)ccc2O)c1 [Compound No. 152],35.1,
85.7,O=C(Nc1cnc2ccccc2c1)c1cc(Cl)ccc1O [Compound No. 242],,
,"CC(C)C(=O)c1ccc(O)c(C(=O)Nc2cc(C(F)(F)F)cc(C(F)(F)F)c2)c1 [Compound No. 34, N-[3,5-Bis(trifluoromethyl)phenyl]-2-hydroxy-5-isobutyrylbenzamide]",,inhibition at 1 µg/mL [3]: 90.7%; inhibition at 10 µg/mL [4]: 98.7%
97.8,Cc1ccc(S(=O)(=O)c2ccc(Cl)cc2NC(=O)c2cc(Cl)ccc2O)cc1 [Compound No. 168],46.7,

SMILES,Inhibitory Ratio of NF-κ B Activation(%) Drug Concentration 10 μg/mL [2] [%],Inhibitory Ratio of NF-κ B Activation(%) Drug Concentration 1 μg/mL [1] [%],further results
O=C(Nc1cc(Br)cc(C(F)(F)F)c1)c1cc(Cl)ccc1O [Compound No. 104],99.2,97.2,
Cc1ccc(C(C)C)cc1NC(=O)c1cc(Cl)ccc1O [Compound No. 151],98.2,85.8,
CC(C)(C)c1cc(NC(=O)c2cc([N+](=O)[O-])ccc2O)cc(C(C)(C)C)c1 [Compound No. 146],98.5,91.2,
O=C(Nc1cc(C(F)(F)F)cc(C(F)(F)F)c1)c1cc(Cl)cc(Cl)c1O [Compound No. 56],95.1,89.4,
O=C(Nc1cc(C(F)(F)F)ccc1N1CCOCC1)c1cc(Cl)ccc1O [Compound No. 106],92.1,92.3,
Cc1ccc(O)c(C(=O)Nc2cc(C(F)(F)F)ccc2Cl)c1 [Compound No. 100],95.1,85.6,
O=C(Nc1cc(C(F)(F)F)ccc1Br)c1cc(Cl)ccc1O [Compound No. 107],96.2,94.9,
COc1cccc(C(=O)Nc2cc(C(F)(F)F)cc(C(F)(F)F)c2)c1O [Compound No. 59],94.7,41.9,
COc1ccc(O)c(C(=O)Nc2cc(C(F)(F)F)ccc2Cl)c1 [Compound No. 101],82.0,17.7,
O=C(Nc1cc(C(F)(F)F)ccc1F)c1cc(Cl)ccc1O [Compound No. 87],95.9,93.1,
O=C(Nc1cc(C(F)(F)F)ccc1N1CCOCC1)c1cc(Br)ccc1O [Compound No. 98],86.4,81.8,
Cc1cc(Oc2ccc(C(F)(F)F)cc2NC(=O)c2cc(Cl)ccc2O)cc(C)c1Cl [Compound No. 115],98.4,90.7,
Cc1ccc(C(F)(F)F)cc1NC(=O)c1cc(Cl)ccc1O [compound 92],97.9,93.8,
O=C(Nc1ccccc1)Nc1ccc(O)c(C(=O)Nc2cc(C(F)(F)F)cc(C(F)(F)F)c2)c1 [Compound No. 46],88.4,20.5,
CON=C(C)c1ccc(O)c(C(=O)Nc2cc(C(F)(F)F)cc(C(F)(F)F)c2)c1 [Compound No. 14],98.3,94.7,
